pIC50: −log10 of the molar value.
Legend:
[1] = target: His-AKT (Full Length) (Homo sapiens (Human), UniProt P31749); experiment: AKT/PKB kinase assay; type: biochemical; details: 160 μM ATP, 90 min at 25° C., Caliper mobility shift
Procedure: In order to measure AKT inhibition in the Caliper Life Sciences LC3000, a TTP Mosquito liquid handling instrument was used to place 125 nl of the appropriate concentration of inhibitor in 100% DMSO (for a dose response curve calculation) into each well of a 384-well plate. To this reaction, the following components were added to a final volume of 12.5 μl: • 0.1 ng/μl His-AKT (Full Length) (Invitrogen, Part # P2999, Lot #641228C); • 160 μM ATP (Fluka, 02055); • 1 mM DTT (Sigma, D0632); • 1 mM MgCl2 (Sigma, M1028); • 1 μM substrate peptide (sequence FITC-AHA-[…]-NH2), synthesized by • Tufts Peptide Synthesis service; • 100 mM HEPES pH 7.5 (Calbiochem, 391338); and • 0.015% Brij-35 (Sigma, B4184).
The reaction was incubated for 90 min at 25° C., and then stopped by the addition of 70 μl of Stop buffer (100 mM HEPES pH 7.5, 0.015% Brij-35, 10 mM EDTA (Sigma, E7889)). The plate was read on a Caliper LC 3000 in an Off-Chip mobility shift assay format, using the following parameters for a 12-sipper chip: screening pressure −2.3 psi, upstream voltage −500, and downstream voltage −3000. These conditions cause unphosphorylated substrate and phosphorylated product peptide to resolve as separate peaks allowing direct measurement of percentage of conversion of substrate to product. The percent conversion was plotted against concentration of inhibitor to produce a sigmoidal dose response curve, from which an IC50 was calculated.

[2] = target: p70S6K (T412E mutant) (Homo sapiens (Human), UniProt P23443, T412E); experiment: p70S6K enzyme assay; type: biochemical; details: 24 μM ATP, 90 min at 25° C., Caliper mobility shift
p70S6K (T412E mutant), sequence (P23443 whole entry T412E): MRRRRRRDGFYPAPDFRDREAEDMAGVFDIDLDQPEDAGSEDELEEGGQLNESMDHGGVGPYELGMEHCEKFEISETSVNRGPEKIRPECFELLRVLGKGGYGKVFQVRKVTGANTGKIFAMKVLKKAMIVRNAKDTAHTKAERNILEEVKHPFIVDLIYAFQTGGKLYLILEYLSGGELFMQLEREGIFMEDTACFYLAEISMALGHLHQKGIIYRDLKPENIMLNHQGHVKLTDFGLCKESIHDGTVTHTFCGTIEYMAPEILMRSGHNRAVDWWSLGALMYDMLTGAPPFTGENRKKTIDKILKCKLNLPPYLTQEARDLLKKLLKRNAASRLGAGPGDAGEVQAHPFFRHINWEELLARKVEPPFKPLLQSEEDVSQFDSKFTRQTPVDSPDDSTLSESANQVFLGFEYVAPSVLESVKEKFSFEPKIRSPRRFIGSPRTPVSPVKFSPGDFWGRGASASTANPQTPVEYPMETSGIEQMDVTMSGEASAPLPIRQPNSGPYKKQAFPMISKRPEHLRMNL
Procedure: p70S6K inhibitor compounds were diluted and plated in 96 well plates. A reaction mixture including the following components were then added to the compound plate to initiate the enzyme reaction: p70S6K (3 nM, T412E mutant, Millipore) was mixed with 24 μM ATP in an assay buffer containing 100 mM Hepes (pH 7.5), 5 mM MgCl2, 1 mM DTT, 0.015% Brij and 1 μM of the substrate peptide FITC-AHA-[…]-OH (derived from the S6 ribosomal protein sequence, FITC=fluorescein isothiocyanate, AHA=6-aminohexanoic acid). The reaction was incubated for 90 min at 25° C., before the addition of 10 mM EDTA to stop the reaction. The proportion of substrate and product (phosphorylated) peptide was analyzed on a Caliper Life Sciences Lab Chip 3000, using a pressure of −1.4 psi, and upstream and downstream voltages of −3000 and −700, respectively. Product peaks were resolved before substrate peaks on the resulting chromatograms. To assess the inhibitory potential of the compounds, IC50 values were determined, as shown above.

His-AKT (Full Length), sequence (P31749 whole entry): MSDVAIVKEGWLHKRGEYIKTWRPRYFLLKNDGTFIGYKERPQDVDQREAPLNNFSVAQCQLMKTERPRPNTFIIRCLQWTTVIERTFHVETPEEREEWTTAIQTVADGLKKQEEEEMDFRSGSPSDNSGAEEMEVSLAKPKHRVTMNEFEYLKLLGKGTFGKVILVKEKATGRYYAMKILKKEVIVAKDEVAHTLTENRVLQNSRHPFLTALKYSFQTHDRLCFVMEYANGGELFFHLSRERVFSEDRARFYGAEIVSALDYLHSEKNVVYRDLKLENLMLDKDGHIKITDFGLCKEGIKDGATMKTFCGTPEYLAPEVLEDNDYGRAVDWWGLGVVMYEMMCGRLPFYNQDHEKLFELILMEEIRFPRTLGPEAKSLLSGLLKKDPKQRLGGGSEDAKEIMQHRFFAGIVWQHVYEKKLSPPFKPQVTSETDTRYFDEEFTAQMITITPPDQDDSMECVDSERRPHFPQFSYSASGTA

| SMILES | pIC50 [1] | pIC50 [2] |
| --- | --- | --- |
| NC(=O)c1ccnc2c(N[C@H](CN3CCC3)c3ccc(OC(F)(F)F)c(Cl)c3)ncnc12 [Compound 73, 4-[(S)-2-Azetidin-1-yl-1-(3-chloro4-trifluoromethoxy-phenyl)-ethylamino]-pyrido[3,2-d]pyrimidine-8-carboxylamide] | 7.00 to 7.60 | > 7.60 |
| CCNC[C@@H](Nc1ncnc2c(C(N)=O)ccnc12)c1cc(F)c(OC)cc1F [Compound 31, 4-[(S)-1-(2,5-Difluoro-4-methoxy-phenyl)-2-ethylamino-ethylamino]-pyrido[3,2-d]pyrimidine-8-carboxylic Acid Amide] | < 6.00 | 7.00 to 7.60 |
| NC(=O)c1cccc2c(NCc3ccc(Cl)c(Cl)c3)nnnc12 [Compound 2, 4-((3,4-dichlorobenzyl)amino)benzo[d][1,2,3]triazine-8-carboxamide] | < 6.00 | > 7.60 |
| NC(=O)c1cccc2c(NCc3cccc(C(F)(F)F)c3)nnnc12 [Compound 1, 4-(3-Trifluoromethyl-benzylamino)-benzo[d][1,2,3]triazine-8-carboxamide] | < 6.00 | 6.30 to 7.00 |
| NC(=O)c1ccnc2c(NC3CNCCC3c3ccc(F)c(Cl)c3)ncnc12 (stereo not shown) [Compound 23, 4-[4-(3-Chloro-4-fluoro-phenyl)-piperidin-3-ylamino]-pyrido[3,2-d]pyrimidine-8-carboxamide] | 6.30 to 7.00 | 7.00 to 7.60 |
| NC(=O)c1ccnc2c(NC3CNCCC3c3ccc(C(F)(F)F)cc3)ncnc12 (stereo not shown) [Compound 25, 4-((4-(4-(trifluoromethyl)phenyl)piperidin-3-yl)amino)pyrido[3,2-d]pyrimidine-8-carboxamide] | 6.00 to 6.30 | > 7.60 |
| CCNC[C@@H](Nc1ncnc2c(C(N)=O)ccnc12)c1cc(F)cc(C(F)(F)F)c1 [Compound 34, 4-[(S)-2-Ethylamino-1-(3-fluoro-5-trifluoromethyl-phenyl)-ethylamino]-pyrido[3,2-d]pyrimidine-8-carboxylic Acid Amide] | 6.30 to 7.00 | 7.00 to 7.60 |
| NC(=O)c1cncc2c(N[C@@H](CN3CCC3)c3ccc(Cl)c(C(F)(F)F)c3)ncnc12 [Compound 19, (R)-4-((2-(azetidin-1-yl)-1-(4-chloro-3-(trifluoromethyl)phenyl)ethyl)amino)pyrido[4,3-d]pyrimidine-8-carboxamide] | < 6.00 | < 6.00 |
| NC(=O)c1cccc2c(NCc3ccc(Cl)c(C(F)(F)F)c3)nnnc12 [Compound 4, 4-((4-chloro-3-(trifluoromethyl)benzyl)amino)benzo[d][1,2,3]triazine-8-carboxamide] | < 6.00 | > 7.60 |
| NC(=O)c1ccnc2c(N[C@H](CN3CCC3)c3ccc(C(F)(F)F)cc3)ncnc12 [Compound 27, 4-[(S)-2-Azetidin-1-yl-1-(4-trifluoromethyl-phenyl)-ethylamino]-pyrido[3,2-d]pyrimidine-8-carboxylic Acid Amide] | 6.30 to 7.00 | > 7.60 |

Now from value to molecule:

| pIC50 [1] | pIC50 [2] | SMILES |
| --- | --- | --- |
| > 7.60 | > 7.60 | CN(C)C[C@@H](Nc1nnnc2c(C(N)=O)cccc12)c1ccc(Cl)c(Cl)c1 [Compound 15, (S)-4-((1-(3,4-dichlorophenyl)-2-(dimethylamino)ethyl)amino)benzo[d][1,2,3]triazine-8-carboxamide] |
| 7.00 to 7.60 | > 7.60 | CCNC[C@@H](Nc1ncnc2c(C(N)=O)ccnc12)c1ccc(C(F)(F)F)c(F)c1 [Compound 29, 4-[(S)-2-Ethylamino-1-(3-fluoro-4-trifluoromethyl-phenyl)-ethylamino]-pyrido[3,2-d]pyrimidine-8-carboxylic Acid Amide] |
| 7.00 to 7.60 | 7.00 to 7.60 | CNC[C@@H](Nc1ncnc2c(C(N)=O)ccnc12)c1cc(F)c(F)cc1F [Compound 60, 4-[(S)-2-Methylamino-1-(2,4,5-trifluoro-phenyl)-ethylamino]-pyrido[3,2-d]pyrimidine-8-carboxylic Acid Amide] |
| > 7.60 | > 7.60 | CCNC[C@@H](Nc1ncnc2c(C(N)=O)ccnc12)c1ccc(C(F)(F)F)c(C(F)(F)F)c1 [Compound 59, 4-[(S)-1-(3,4-Bis-trifluoromethyl-phenyl)-2-ethylamino-ethylamino]-pyrido[3,2-d]pyrimidine-8-carboxylic Acid Amide] |
| 6.30 to 7.00 | > 7.60 | COc1cc([C@@H](CN2CCC2)Nc2nnnc3c(C(N)=O)cccc23)ccc1Cl [Compound 10, (S)-4-((2-(azetidin-1-yl)-1-(4-chloro-3-methoxyphenyl)ethyl)amino)-benzo[d][1,2,3]triazine-8-carboxamide] |
| > 7.60 | > 7.60 | CNC[C@@H](Nc1ncnc2c(C(N)=O)ccnc12)c1cccc(Cl)c1 [Compound 64, 4-[(S)-1-(3-Chloro-phenyl)-2-methylamino-ethylamino]-pyrido[3,2-d]pyrimidine-8-carboxylic Acid Amide] |
| > 7.60 | > 7.60 | CNC[C@@H](Nc1ncnc2c(C(N)=O)ccnc12)c1ccc(Cl)c(C)c1 [Compound 44, 4-[(S)-1-(4-Chloro-3-methyl-phenyl)-2-methylamino-ethylamino]-pyrido[3,2-d]pyrimidine-8-carboxylic Acid Amide] |
| 7.00 to 7.60 | > 7.60 | CNC[C@@H](Nc1ncnc2c(C(N)=O)ccnc12)c1ccc(OC(F)(F)F)c(Cl)c1 [Compound 74, 4-[(S)-1-(3-Chloro-4-trifluoromethoxy-phenyl)-2-methylamino-ethylamino]-pyrido[3,2-d]pyrimidine-8-carboxylamide] |
| > 7.60 | > 7.60 | NC(=O)c1ccnc2c(N[C@H](CN3CCC3)c3ccc(C(F)(F)F)c(C(F)(F)F)c3)ncnc12 [Compound 63, 4-[(S)-2-Azetidin-1-yl-1-(3,4-bis-trifluoromethyl-phenyl)-ethylamino]-pyrido[3,2-d]pyrimidine-8-carboxylic Acid Amide] |
| 7.00 to 7.60 | > 7.60 | CNC[C@@H](Nc1ncnc2c(C(N)=O)ccnc12)c1ccc(Cl)cc1 [Compound 45, 4-[(S)-1-(4-Chloro-phenyl)-2-methylamino-ethylamino]-pyrido[3,2-d]pyrimidine-8-carboxylic Acid Amide] |
| 7.00 to 7.60 | > 7.60 | CN(C)C[C@@H](Nc1ncnc2c(C(N)=O)ccnc12)c1ccc(F)c(C(F)(F)F)c1 [Compound 50, 4-[(S)-2-Dimethylamino-1-(4-fluoro-3-trifluoromethyl-phenyl)-ethylamino]-pyrido[3,2-d]pyrimidine-8-carboxylic Acid Amide] |
| 7.00 to 7.60 | > 7.60 | CNC[C@@H](Nc1ncnc2c(C(N)=O)ccnc12)c1cc(F)cc(C(F)(F)F)c1 [Compound 35, 4-[(S)-1-(3-Fluoro-5-trifluoromethyl-phenyl)-2-methylamino-ethylamino]-pyrido[3,2-d]pyrimidine-8-carboxylic Acid Amide] |
| > 7.60 | > 7.60 | CNC[C@@H](Nc1ncnc2c(C(N)=O)ccnc12)c1ccc(C(F)(F)F)c(C(F)(F)F)c1 [Compound 43, 4-[(S)-1-(3,4-Bis-trifluoromethyl-phenyl)-2-methylamino-ethylamino]-pyrido[3,2-d]pyrimidine-8-carboxylamide] |
| 7.00 to 7.60 | > 7.60 | NC(=O)c1cncc2c(N[C@H](CN3CCC3)c3ccc(Cl)c(C(F)(F)F)c3)ncnc12 [Compound 20, (S)-4-((2-(azetidin-1-yl)-1-(4-chloro-3-(trifluoromethyl)phenyl)ethyl)amino)pyrido[4,3-d]pyrimidine-8-carboxamide] |
| > 7.60 | > 7.60 | CN(C)C[C@@H](Nc1nnnc2c(C(N)=O)cccc12)c1ccc(Cl)c(C(F)(F)F)c1 [Compound 13, (S)-4-((1-(4-chloro-3-(trifluoromethyl)phenyl)-2-(dimethylamino)ethyl)amino)benzo-[d][1,2,3]triazine-8-carboxamide] |
| 7.00 to 7.60 | > 7.60 | CCNC[C@@H](Nc1ncnc2c(C(N)=O)ccnc12)c1ccc(Cl)c(C(F)(F)F)c1 [Compound 33, 4-[(S)-1-(4-Chloro-3-trifluoromethyl-phenyl)-2-ethylamino-ethylamino]-pyrido[3,2-d]pyrimidine-8-carboxylic Acid Amide] |

Reference: patent US9981925B2, “Substituted benzo[d][1,2,3]triazines as p70S6K inhibitors” (Merck Patent GmbH, priority 2012, dated 2018)
